Data as given in US8962608B2, “Cycloalkylnitrile pyrazole carboxamides as janus kinase inhibitors” (Merck Sharp & Dohme Corp., priority 2011, dated 2015).

Target: JAK1 (recombinant purified GST-tagged catalytic domain) (Homo sapiens (Human), UniProt P23458);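 note: biochemical assay with HTRF read-out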
Experiment: biochemical

JAK1 (recombinant purified GST-tagged catalytic domain), sequence (P23458 875-1153): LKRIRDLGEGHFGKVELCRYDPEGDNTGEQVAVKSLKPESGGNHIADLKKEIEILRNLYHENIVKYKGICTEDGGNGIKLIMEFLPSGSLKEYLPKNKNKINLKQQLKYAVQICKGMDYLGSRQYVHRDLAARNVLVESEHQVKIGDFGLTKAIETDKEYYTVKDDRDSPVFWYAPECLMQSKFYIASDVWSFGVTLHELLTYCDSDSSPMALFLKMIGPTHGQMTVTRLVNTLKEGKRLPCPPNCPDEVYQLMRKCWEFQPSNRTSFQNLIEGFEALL

SMILES	IC50 [nM]
N#C[C@H]1C[C@@H](C(=O)N[C@@H](C2CC2)C(F)(F)F)CC[C@@H]1n1cc(C(N)=O)c(Nc2ccc(Cl)cc2)n1 (single isomer, unassigned) [Example 35-24, 3-[(4-chlorophenyl)amino]-1-[(1S,2S,4S or 1R,2R,4R)-2-cyano-4-{[(1S)-1-cyclopropyl-2,2,2-trifluoroethyl]carbamoyl}cyclohexyl]-1H-pyrazole-4-carboxamide]	180
N#C[C@@H]1C[C@H](C(=O)N[C@H](C2CC2)C(F)(F)F)CC[C@H]1n1cc(C(N)=O)c(Nc2ccc(Cl)cc2)n1 (single isomer, unassigned) [Example 35-25, 3-[(4-chlorophenyl)amino]-1-[(1R,2R,4R or 1S,2S,4S)-2-cyano-4-{[(1R)-1-cyclopropyl-2,2,2-trifluoroethyl]carbamoyl}cyclohexyl]-1H-pyrazole-4-carboxamide]	21
N#C[C@H]1C[C@@H](C(=O)N2CCC(F)(F)C2)CC[C@@H]1n1cc(C(N)=O)c(Nc2ccc(Cl)cc2)n1 (single isomer, unassigned) [Example 35-28, 3-[(4-chlorophenyl)amino]-1-{(1S,2S,4S or 1R,2R,4R)-2-cyano-4-[(3,3-difluoropyrrolidin-1-yl)carbonyl]cyclohexyl}-1H-pyrazole-4-carboxamide]	3
CC1(CNC(=O)[C@@H]2CC[C@@H](n3cc(C(N)=O)c(Nc4ccc(Cl)cc4)n3)[C@H](C#N)C2)COC1 (single isomer, unassigned) [Example 35-29, 3-[(4-chlorophenyl)amino]-1-[(1R,2R,4R or 1S,2S,4S)-2-cyano-4-{[(3-methyloxetan-3-yl)methyl]carbamoyl}cyclohexyl]-1H-pyrazole-4-carboxamide]	38
CC1(CNC(=O)[C@H]2CC[C@H](n3cc(C(N)=O)c(Nc4ccc(Cl)cc4)n3)[C@@H](C#N)C2)COC1 (single isomer, unassigned) [Example 35-31, 3-[(4-chlorophenyl)amino]-1-[(1S,2S,4S or 1R,2R,4R)-2-cyano-4-{[(3-methyloxetan-3-yl)methyl]carbamoyl}cyclohexyl]-1H-pyrazole-4-carboxamide]	9
N#C[C@@H]1C[C@H](C(=O)N2CCC(F)(F)C2)CC[C@H]1n1cc(C(N)=O)c(Nc2ccc(Cl)cc2)n1 (single isomer, unassigned) [Example 35-32, 3-[(4-chlorophenyl)amino]-1-{(1R,2R,4R or 1S,2S,4S)-2-cyano-4-[(3,3-difluoropyrrolidin-1-yl)carbonyl]cyclohexyl}-1H-pyrazole-4-carboxamide]	5
N#C[C@@H]1C[C@H](C(=O)N2CC(F)C2)CC[C@H]1n1cc(C(N)=O)c(Nc2ccc(Cl)cc2)n1 (single isomer, unassigned) [Example 35-33, 3-[(4-chlorophenyl)amino]-1-{(1R,2R,4R or 1S,2S,4S)-2-cyano-4-[(3-fluoroazetidin-1-yl)carbonyl]cyclohexyl}-1H-pyrazole-4-carboxamide]	9
N#C[C@H]1C[C@@H](C(=O)N2CC(F)C2)CC[C@@H]1n1cc(C(N)=O)c(Nc2ccc(Cl)cc2)n1 (single isomer, unassigned) [Example 35-34, 3-[(4-chlorophenyl)amino]-1-{(1S,2S,4S or 1R,2R,4R)-2-cyano-4-[(3-fluoroazetidin-1-yl)carbonyl]cyclohexyl}-1H-pyrazole-4-carboxamide]	3
CO/N=C/c1ccc(Nc2nn([C@H]3CCCC[C@@H]3C#N)cc2C(N)=O)cc1 (single isomer, unassigned) [Example 39, 1-[(1S,2S or 1R, 2R)-2-Cyanocyclohexyl]-3-({4-[(methoxyimino)methyl]phenyl}amino)-1H-pyrazole-4-carboxamide]	0.45
N#C[C@@H]1CCCCC1n1cc(C(N)=O)c(Nc2ccc(S(=O)(=O)CC(F)(F)F)cc2)n1 (single isomer, unassigned) [Example 43-7, 1-[(1S,2S or 1R,2R)-2-cyanocyclohexyl]-3-({4-[(2,2,2-trifluoroethyl)sulfonyl]phenyl}amino)-1H-pyrazole-4-carboxamide]	2
N#C[C@@H]1CCCCC1n1cc(C(N)=O)c(Nc2ccc(S(=O)(=O)CC(F)(F)F)cc2)n1 (single isomer, unassigned) [Example 43-8, 1-[(1S,2S or 1R,2R)-2-cyanocyclohexyl]-3-({4-[(2,2,2-trifluoroethyl)sulfonyl]phenyl}amino)-1H-pyrazole-4-carboxamide]	0.15
N#C[C@@H]1CCCC[C@H]1n1cc(C(N)=O)c(Nc2ccc3c(c2)CCS3(=O)=O)n1 (single isomer, unassigned) [Example 45-6, 1-[(1S,2R or 1R,2S)-2-cyanocyclohexyl)-3-[(1,1-dioxido-2,3-dihydro-1-benzothiophen-5-yl)amino]-1H-pyrazole-4-carboxamide]	2

Target: JAK2 (recombinant purified GST-tagged catalytic domain) (Homo sapiens (Human), UniProt O60674);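 note: biochemical JAK kinase assay with HTRF detection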
Sequence (O60674 849-1124): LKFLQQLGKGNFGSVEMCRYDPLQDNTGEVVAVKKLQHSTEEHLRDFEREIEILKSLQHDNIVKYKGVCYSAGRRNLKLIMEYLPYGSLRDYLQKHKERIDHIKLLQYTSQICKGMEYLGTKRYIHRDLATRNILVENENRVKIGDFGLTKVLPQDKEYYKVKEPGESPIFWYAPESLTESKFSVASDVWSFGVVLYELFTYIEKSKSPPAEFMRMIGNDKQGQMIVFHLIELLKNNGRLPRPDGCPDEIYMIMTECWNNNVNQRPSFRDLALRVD
Experiment: biochemical

SMILES	IC50 [nM]
N#C[C@@H]1CCCCC1n1cc(C(N)=O)c(Nc2ccccc2)n1 (mixture of isomers) [Example 1-3, 1-[(1S,2R and 1R,2S)-2-cyanocyclohexyl]-3-(phenylamino)-1H-pyrazole-4-carboxamide]	138
N#C[C@H]1CCCC[C@@H]1n1cc(C(N)=O)c(Nc2ccccc2)n1 (racemic) [Example 2-1, 1-((1S,2S and 1R,2R)-2-cyanocyclohexyl)-3-(phenylamino)-1H-pyrazole-4-carboxamide]	36
CS(=O)(=O)c1ccc(Nc2nn(C3CCCC[C@H]3C#N)cc2C(N)=O)cc1 (mixture of isomers) [Example 2-14, 1-[(1S,2R and 1R,2S)-2-cyanocyclohexyl]-3-{[4-(methylsulfonyl)phenyl]amino}-1H-pyrazole-4-carboxamide]	18
CC(C)(C)OC(=O)NC1CC[C@H](C#N)C(n2cc(C(N)=O)c(Nc3ccc(F)cc3)n2)C1 (mixture of isomers) [Example 11-3, tert-butyl [(1R,3S,4S and 1S,3R,4R) or (1S,3S,4S and 1R,3R,4R)-3-{4-carbamoyl-3-[(4-fluorophenyl)amino]-1H-pyrazol-1-yl}-4-cyanocyclohexyl]carbamate]	49
CC(C)(C)OC(=O)NC1CC[C@@H](C#N)C(n2cc(C(N)=O)c(Nc3ccc(F)cc3)n2)C1 (mixture of isomers) [Example 11-4, tert-butyl [(3R,4S and 3S,4R)-3-{4-carbamoyl-3-[(4-fluorophenyl)amino]-1H-pyrazol-1-yl}-4-cyanocyclohexyl]carbamate]	20
CC(C)(C)OC(=O)NC1CC[C@H](C#N)C(n2cc(C(N)=O)c(Nc3ccc(F)cc3)n2)C1 (mixture of isomers) [Example 11-5, tert-butyl [(1R,3S,4S and 1S,3R,4R) or (1S,3S,4S and 1R,3R,4R)-3-{4-carbamoyl-3-[(4-fluorophenyl)amino]-1H-pyrazol-1-yl}-4-cyanocyclohexyl]carbamate]	22
CS(=O)(=O)c1ccc(Nc2nn(C3CCCC[C@@H]3C#N)cc2C(N)=O)cc1F (mixture of isomers) [Example 17-8, 1-[(1S,2S and 1R,2R)-2-cyanocyclohexyl]-3-{[3-fluoro-4-(methylsulfonyl)phenyl]amino}-1H-pyrazole-4-carboxamide]	10
N#C[C@H]1CCCCC1n1cc(C(N)=O)c(Nc2ccc(S(=O)(=O)C(F)F)cc2)n1 (mixture of isomers) [Example 17-9, 1-[(1S,2S and 1R,2R)-2-cyanocyclohexyl]-3-({4-[(difluoromethyl)sulfonyl]phenyl}amino)-1H-pyrazole-4-carboxamide]	5
CCS(=O)(=O)c1ccc(Nc2nn(C3CCCC[C@@H]3C#N)cc2C(N)=O)cc1 (mixture of isomers) [Example 17-10, 1-[(1S,2S and 1R,2R)-2-cyanocyclohexyl]-3-{[4-(ethylsulfonyl)phenyl]amino}-1H-pyrazole-4-carboxamide]	4
N#C[C@H]1CCCC[C@@H]1n1cc(C(N)=O)c(Nc2cccnc2)n1 (racemic) [Example 17-13, 1-[(1S,2S and 1R,2R)-2-cyanocyclohexyl]-3-(pyridin-3-ylamino)-1H-pyrazole-4-carboxamide]	36
N#C[C@H]1CCCC[C@@H]1n1cc(C(N)=O)c(Nc2ccc(Cl)c(F)c2)n1 (racemic) [Example 17-56, 3-[(4-chloro-3-fluorophenyl)amino]-1-[(1S,2S and 1R,2R)-2-cyanocyclohexyl]-1H-pyrazole-4-carboxamide]	37
N#C[C@H]1CCCC[C@@H]1n1cc(C(N)=O)c(Nc2ccc(F)c(Cl)c2)n1 (racemic) [Example 17-58, 3-[(3-chloro-4-fluorophenyl)amino]-1-[(1S,2S and 1R,2R)-2-cyanocyclohexyl]-1H-pyrazole-4-carboxamide]	42
N#C[C@H]1CCCC[C@@H]1n1cc(C(N)=O)c(Nc2ccc(OC(F)F)nc2)n1 (racemic) [Example 17-102, 1-[(1S,2S and 1R,2R)-2-cyanocyclohexyl]-3-{[6-(difluoromethoxy)pyridin-3-yl]amino}-1H-pyrazole-4-carboxamide]	39
CCNC1CCC(n2cc(C(N)=O)c(Nc3ccc(S(=O)(=O)C(F)(F)F)cc3)n2)[C@@H](C#N)C1 (mixture of isomers) [Example 27-5, 1-[(1S,2S and 1R,2R)-2-cyano-4-(ethylamino)cyclohexyl]-3-({4-[(trifluoromethyl)sulfonyl]phenyl}amino)-1H-pyrazole-4-carboxamide]	11
N#C[C@H]1CC(NC2CC2)CCC1n1cc(C(N)=O)c(Nc2ccc(S(=O)(=O)C(F)(F)F)cc2)n1 (mixture of isomers) [Example 27-10, 1-[(1S,2S and 1R,2R)-2-cyano-4-(cyclopropylamino)cyclohexyl]-3-({4-[(trifluoromethyl)sulfonyl]phenyl}amino)-1H-pyrazole-4-carboxamide]	7
N#C[C@H]1C[C@@H](NCC(F)(F)F)CCC1n1cc(C(N)=O)c(Nc2ccc(S(=O)(=O)C(F)(F)F)cc2)n1 (mixture of isomers) [Example 27-11, 1-{(1S,2S,4S and 1R,2R,4R)-2-cyano-4-[(2,2,2-trifluoroethyl)amino]cyclohexyl}-3-({4-[(trifluoromethyl)sulfonyl]phenyl}amino)-1H-pyrazole-4-carboxamide]	6
